Read-outs that look alike come from different tables or passages of the source.
What was measured:
androgen receptor (AR) = biological target: T1, androgen receptor (AR) (Homo sapiens, UniProt P10275); assay: AR-EcoScreen androgen receptor transcriptional activation assay (AR antagonism); type: cell-based
T1 construct: host or cells: AR-EcoScreen cells
T1 sequence (P10275 1-920): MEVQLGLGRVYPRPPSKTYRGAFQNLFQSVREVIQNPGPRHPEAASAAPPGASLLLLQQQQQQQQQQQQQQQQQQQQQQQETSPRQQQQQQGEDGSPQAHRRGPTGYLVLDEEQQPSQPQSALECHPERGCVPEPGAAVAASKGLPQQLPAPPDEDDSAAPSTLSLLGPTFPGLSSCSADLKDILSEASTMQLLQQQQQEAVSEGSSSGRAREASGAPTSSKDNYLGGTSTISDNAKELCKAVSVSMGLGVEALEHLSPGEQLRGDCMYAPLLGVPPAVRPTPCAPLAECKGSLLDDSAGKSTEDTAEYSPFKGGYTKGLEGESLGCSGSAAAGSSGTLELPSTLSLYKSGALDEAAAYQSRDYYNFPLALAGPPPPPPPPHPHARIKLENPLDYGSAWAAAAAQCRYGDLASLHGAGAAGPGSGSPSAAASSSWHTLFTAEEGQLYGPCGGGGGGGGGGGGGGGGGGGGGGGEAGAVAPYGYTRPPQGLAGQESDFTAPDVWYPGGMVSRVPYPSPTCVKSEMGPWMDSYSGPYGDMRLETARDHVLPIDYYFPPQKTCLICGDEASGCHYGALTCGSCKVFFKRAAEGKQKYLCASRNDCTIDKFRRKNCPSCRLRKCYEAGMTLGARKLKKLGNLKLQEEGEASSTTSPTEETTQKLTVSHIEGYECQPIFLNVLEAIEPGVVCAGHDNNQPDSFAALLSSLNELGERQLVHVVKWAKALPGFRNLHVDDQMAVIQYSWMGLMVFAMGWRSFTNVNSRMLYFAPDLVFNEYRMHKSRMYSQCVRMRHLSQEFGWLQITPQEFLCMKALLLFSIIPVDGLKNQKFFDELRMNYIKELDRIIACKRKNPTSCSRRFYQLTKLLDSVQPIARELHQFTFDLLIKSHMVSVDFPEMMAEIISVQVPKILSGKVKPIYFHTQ
Protocol: Experiments were run with three technical replicates and repeated three times. The mean value of technical replicates represents one biological replicate. AR-EcoScreen™ cells (JCRB1328; Japanese Collection of Research Bioresources) were grown in CellBIND® surface cell culture flasks (Corning Inc.) in growth medium consisting of Gibco® Dulbecco’s Modified Eagle’s Medium/F-12 (DMEM/F-12) Nutrient Mixture with L-glutamine and 4-(2-hydroxyethyl)-1-piperazineethanesulfonic acid (HEPES) and without phenol red supplemented with 5% fetal bovine serum (FBS), 1% penicillin-streptomycin, 200μg/mL Zeocin™ selection reagent, and 100μg/mL Hygromycin B (all reagents from Invitrogen, Life Technologies). The cells were incubated at 37°C in a humidified atmosphere of 5% carbon dioxide ( CO2 ) and 95% air. On the day before the experiment, cells were plated in white 96-well plates (Corning Inc.) at a density of 9,000 cells/well in assay medium consisting of Gibco® DMEM/F-12 Nutrient Mixture medium, 1% penicillin-streptomycin, with 5% dextran-coated charcoal-treated FBS (all reagents from Invitrogen, Life Technologies). On the following day, the medium was changed to assay medium containing the known AR agonist R1881 (Perkin Elmer) in 2-fold serial dilutions from 0.008 to 1 nM or the known AR antagonist hydroxyflutamide (CASRN 52806-53-8, Toronto Research Chemicals) in 3-fold serial dilutions from […] together with 0.1 nM R1881. […] The DMSO vehicle concentrations were kept constant in all wells (0.1%). Following approximately 20 h of exposure to test compounds firefly luminescence was measured in a luminometer (LUMIstar® Galaxy, BMG LABTECH) using Dual-Glo® Luciferase Reagent from the Dual-Glo® Luciferase Assay System from Promega. Cell viability was measured by Renilla luminescence using Dual-Glo® Stop & Glo® Reagent from the Dual-Glo® Luciferase Assay System.

Wistar rats [1] = assay: In vivo Study 3 (fludioxonil, cyprodinil, dimethomorph), reproductive/developmental toxicity, AGD; details: for AGDI mean: Study 3, male pups
pregnant dams and pups = details: ref EFSA's Draft Assessment Reports (DARs); cited from earlier work
Sprague-Dawley rats = details: male, rat, in vivo
Wistar rats [2] = details: rat, in vivo

## CC12CC1(C)C(=O)N(c1cc(Cl)cc(Cl)c1)C2=O (stereo not drawn) [Procymidone, procymidone, reference compound]
Androgen receptor (AR)
  IC50: 400 nM
Androgen receptor (AR); reporter gene assay
  AR antagonism, in words: antagonized the AR

## N#Cc1c[nH]cc1-c1cccc2c1OC(F)(F)O2 [Fludioxonil, fludioxonil]
Wistar rats [1]; 20 mg/kg bw/day
  % perinatal loss: 11.5 ± 11.9%
  % postimplantation loss: 8.4 ± 10.2%
  % postnatal deaths: 3.1 ± 9.7%
  %males: 54.8 ± 15.6%
  AGD females (mm): 2.15 ± 0.09 mm
  AGD females (units): 13.04 ± 0.5 units
  AGD males (mm): 3.84 ± 0.12 mm
  AGD males (units): 23.26 ± 0.7 units
  Dam bw gain PD 1-14: 33.1 ± 12.7
  Dam bw gain, GD7- PD 1: 23.8 ± 10.5
  Dam bw gain,GD7-21: 92.7 ± 15.8
  Female birth weight: 6.21 ± 0.5
  Gestation length: 23.0 ± 0.0 days
  Litter size: 10.5 ± 2.4
  Male birth weight: 6.48 ± 0.4
  Male weights PD 23: 48.66 ± 6.1
  Nipple retention females: 12.21 ± 0.2
  Nipple retention males: 0.04 ± 0.09
  Offspring weight PD 6: 12.98 ± 1.3
  Offspring weight PD 14: 28.07 ± 3.3
Wistar rats [1]; 60 mg/kg bw/day
  % perinatal loss: 18.7 ± 32.5%
  % postimplantation loss: 15.9 ± 32.1%
  % postnatal deaths: 3.4 ± 9.6%
  %males: 47.2 ± 14.5%
  AGD females (mm): 2.10 ± 0.11 mm
  AGD females (units): 12.70 ± 0.6 units
  AGD males (mm): 3.77 ± 0.16 mm
  AGD males (units): 22.83 ± 1.0 units
  Dam bw gain PD 1-14: 38.1 ± 10.8
  Dam bw gain, GD7- PD 1: 16.8 ± 8.1
  Dam bw gain,GD7-21: 84.8 ± 9.7
  Female birth weight: 6.18 ± 0.3
  Gestation length: 23.0 ± 0.0 days
  Litter size: 11.0 ± 1.3
  Male birth weight: 6.58 ± 0.4
  Male weights PD 23: 49.78 ± 6.9
  Nipple retention females: 12.13 ± 0.2
  Nipple retention males: 0.08 ± 0.16
  Offspring weight PD 6: 13.20 ± 1.6
  Offspring weight PD 14: 28.41 ± 4.2
Wistar rats [1]; 180 mg/kg bw/day
  % perinatal loss: 32.3 ± 35.6%
  % postimplantation loss: 31.4 ± 36.0%
  % postnatal deaths: 1.1 ± 2.7%
  %males: 63.0 ± 20.8%
  AGD females (mm): 2.15 ± 0.10 mm
  AGD females (units): 13.04 ± 0.6 units
  AGD males (mm): 3.81 ± 0.18 mm
  AGD males (units): 23.11 ± 1.1 units
  Dam bw gain PD 1-14: 23.2 ± 15.5
  Dam bw gain, GD7- PD 1: 17.5 ± 14.9
  Dam bw gain,GD7-21: 71.3 ± 20.7
  Female birth weight: 6.06 ± 0.5
  Gestation length: 22.8 ± 0.75 days
  Litter size: 8.2 ± 5.0
  Male birth weight: 6.51 ± 0.6
  Male weights PD 23: 47.97 ± 5.6
  Nipple retention females: 12.41 ± 0.6
  Nipple retention males: 0.47 ± 0.78
  Offspring weight PD 6: 12.54 ± 1.9
  Offspring weight PD 14: 26.58 ± 4.1
Wistar rats [1]; Study 3
  Nipple retention at PD14, statistics in words: no statistically significant effects on nipple retention
Wistar rats [1]; dose 20 mg/kg BW
  AGDI mean: 2.06
Wistar rats [1]; dose 60 mg/kg BW
  AGDI mean: 2.01
Wistar rats [1]; dose 180 mg/kg BW
  AGDI mean: 2.06
Wistar rats [1]; male offspring, normalized AGDI scale, dose 60 mg/kg BW per day
  AGDI reduction (%): 13%
Pregnant dams and pups
  Critical toxicity: Reduced maternal and pup BW
  LOAEL (mg/kg bw): 212 mg/kg bw
  NOAEL (mg/kg bw): 21 mg/kg bw

## COc1ccc(C(=CC(=O)N2CCOCC2)c2ccc(Cl)cc2)cc1OC [Dimethomorph, dimethomorph]
Wistar rats [1]; 20 mg/kg bw/day
  % postnatal deaths: 1.4 ± 3.8%
  AGD index females: 1.12 ± 0.03
  AGD index males: 2.01 ± 0.04
Wistar rats [1]; 60 mg/kg bw/day
  % postnatal deaths: 2.6 ± 4.1%
  AGD index females: 1.18 ± 0.05
  AGD index males: 2.15 ± 0.08
Pregnant dams and pups
  Critical toxicity: Reduced maternal and pup body weight, reduced gestation length
  LOAEL (mg/kg bw): 67 mg/kg bw
  NOAEL (mg/kg bw): 20 mg/kg bw
Sprague-Dawley rats; 20 mg/kg
  AGDI mean: 1.95
Sprague-Dawley rats; 60 mg/kg
  AGDI mean: 1.88
Sprague-Dawley rats; 180 mg/kg
  AGDI mean: 1.91
Wistar rats [2]; male, Wistar (HanTac:WH)
  Shortening of AGDI compared with male controls (normalized AGDI scale): around 10%
Wistar rats [2]; male, Wistar, 20 mg/kg
  AGDI mean: 2.01
Wistar rats [2]; male, Wistar, 20 mg/kg/day
  AGDI reduction (%): 13%
Wistar rats [2]; male, Wistar, 60 mg/kg
  AGDI mean: 2.16
Wistar rats [2]
  Nipple retention at PD14, statistics in words: no statistically significant effects on nipple retention

Reference: paper PMC7687371, “Quantitative in Vitro to in Vivo Extrapolation (QIVIVE) for Predicting Reduced Anogenital Distance Produced by Anti-Androgenic Pesticides in a Rodent Model for Male Reproductive Disorders” (Environmental Health Perspectives, 2020)
